# Laboratory results from the NIST ThermoML archive (doi:10.1021/je034203p).
# ± gives the expanded uncertainty stated by the source.
# Assay: xn = mol fraction of the nth substance listed
# Conditions: 298.15 K, 101.3 kPa, Liquid; for viscosity: Capillary tube (Ostwald / Ubbelohde) method
smiles,measurement,setting,value
ClC(Cl)=C(Cl)Cl [tetrachloroethene] + CO,viscosity,x1 = 0.042,0.5644 ± 0.0076 mPa·s
same,viscosity,x1 = 0.0897,0.5806 ± 0.0077 mPa·s
same,viscosity,x1 = 0.1446,0.5981 ± 0.0078 mPa·s
same,viscosity,x1 = 0.2082,0.6209 ± 0.0079 mPa·s
same,viscosity,x1 = 0.2828,0.6449 ± 0.008 mPa·s
same,viscosity,x1 = 0.372,0.6751 ± 0.0081 mPa·s
same,viscosity,x1 = 0.4795,0.7069 ± 0.0083 mPa·s
same,viscosity,x1 = 0.6123,0.7412 ± 0.0085 mPa·s
same,viscosity,x1 = 0.7804,0.7875 ± 0.0088 mPa·s
same,viscosity,x1 = 1,0.8474 ± 0.0091 mPa·s
same,mass density,x1 = 0.042,868.7 ± 0.6 kg/m3
same,mass density,x1 = 0.0897,950.1 ± 0.6 kg/m3
same,mass density,x1 = 0.1446,1030.1 ± 0.6 kg/m3
same,mass density,x1 = 0.2082,1112 ± 0.7 kg/m3
same,mass density,x1 = 0.2828,1192.6 ± 0.9 kg/m3
same,mass density,x1 = 0.372,1274.4 ± 1 kg/m3
same,mass density,x1 = 0.4795,1355.9 ± 1.2 kg/m3
same,mass density,x1 = 0.6123,1439.7 ± 1.3 kg/m3
same,mass density,x1 = 0.7804,1524.3 ± 1.4 kg/m3
same,mass density,x1 = 1,1610.2 ± 1.6 kg/m3
ClC(Cl)=C(Cl)Cl [tetrachloroethene] + COC(C)=O,viscosity,x1 = 0.0796,0.4237 ± 0.007 mPa·s
same,viscosity,x1 = 0.1628,0.4749 ± 0.0072 mPa·s
same,viscosity,x1 = 0.25,0.5226 ± 0.0074 mPa·s
same,viscosity,x1 = 0.3415,0.5729 ± 0.0076 mPa·s
same,viscosity,x1 = 0.4373,0.6243 ± 0.0079 mPa·s
same,viscosity,x1 = 0.5388,0.6708 ± 0.0081 mPa·s
same,viscosity,x1 = 0.6452,0.7166 ± 0.0084 mPa·s
same,viscosity,x1 = 0.7573,0.7614 ± 0.0086 mPa·s
same,viscosity,x1 = 0.8749,0.8038 ± 0.0089 mPa·s
same,viscosity,x1 = 1,0.8474 ± 0.0091 mPa·s
same,mass density,x1 = 0.0796,989.2 ± 0.5 kg/m3
same,mass density,x1 = 0.1628,1054.7 ± 0.6 kg/m3
same,mass density,x1 = 0.25,1120.7 ± 0.7 kg/m3
same,mass density,x1 = 0.3415,1188.6 ± 0.8 kg/m3
same,mass density,x1 = 0.4373,1255.3 ± 1 kg/m3
same,mass density,x1 = 0.5388,1322.7 ± 1.1 kg/m3
same,mass density,x1 = 0.6452,1393.1 ± 1.2 kg/m3
same,mass density,x1 = 0.7573,1464.2 ± 1.3 kg/m3
same,mass density,x1 = 0.8749,1535.4 ± 1.5 kg/m3
same,mass density,x1 = 1,1610.2 ± 1.6 kg/m3
ClC(Cl)=C(Cl)Cl [tetrachloroethene] + Cc1ccccc1,viscosity,x1 = 0.1034,0.5799 ± 0.0077 mPa·s
same,viscosity,x1 = 0.2062,0.6014 ± 0.0078 mPa·s
same,viscosity,x1 = 0.3079,0.6234 ± 0.0079 mPa·s
same,viscosity,x1 = 0.4093,0.6477 ± 0.008 mPa·s
same,viscosity,x1 = 0.5095,0.6743 ± 0.0081 mPa·s
same,viscosity,x1 = 0.6092,0.7053 ± 0.0083 mPa·s
same,viscosity,x1 = 0.7083,0.7377 ± 0.0085 mPa·s
same,viscosity,x1 = 0.806,0.7701 ± 0.0087 mPa·s
same,viscosity,x1 = 0.9038,0.8084 ± 0.0089 mPa·s
same,viscosity,x1 = 1,0.8474 ± 0.0091 mPa·s
same,mass density,x1 = 0.1034,932 ± 0.6 kg/m3
same,mass density,x1 = 0.2062,1004.7 ± 0.6 kg/m3
same,mass density,x1 = 0.3079,1078.4 ± 0.7 kg/m3
same,mass density,x1 = 0.4093,1151.3 ± 0.8 kg/m3
same,mass density,x1 = 0.5095,1225.3 ± 0.9 kg/m3
same,mass density,x1 = 0.6092,1300.1 ± 1.1 kg/m3
same,mass density,x1 = 0.7083,1376.8 ± 1.2 kg/m3
same,mass density,x1 = 0.806,1451.7 ± 1.3 kg/m3
same,mass density,x1 = 0.9038,1530.1 ± 1.5 kg/m3
same,mass density,x1 = 1,1610.2 ± 1.6 kg/m3
ClC(Cl)=C(Cl)Cl [tetrachloroethene] + ClC(Cl)(Cl)Cl,viscosity,x1 = 0.0946,0.8943 ± 0.0094 mPa·s
same,viscosity,x1 = 0.1904,0.8803 ± 0.0093 mPa·s
same,viscosity,x1 = 0.2873,0.8675 ± 0.0092 mPa·s
same,viscosity,x1 = 0.3853,0.8569 ± 0.0092 mPa·s
same,viscosity,x1 = 0.4845,0.8504 ± 0.0091 mPa·s
same,viscosity,x1 = 0.5859,0.8452 ± 0.0091 mPa·s
same,viscosity,x1 = 0.6876,0.8407 ± 0.0091 mPa·s
same,viscosity,x1 = 0.7904,0.8422 ± 0.0091 mPa·s
same,viscosity,x1 = 0.8946,0.8445 ± 0.0091 mPa·s
same,viscosity,x1 = 1,0.8474 ± 0.0091 mPa·s
same,mass density,x1 = 0.0946,1583.5 ± 1.6 kg/m3
same,mass density,x1 = 0.1904,1582.4 ± 1.6 kg/m3
same,mass density,x1 = 0.2873,1582 ± 1.6 kg/m3
same,mass density,x1 = 0.3853,1582.5 ± 1.6 kg/m3
same,mass density,x1 = 0.4845,1583.8 ± 1.6 kg/m3
same,mass density,x1 = 0.5859,1587.2 ± 1.6 kg/m3
same,mass density,x1 = 0.6876,1590.1 ± 1.6 kg/m3
same,mass density,x1 = 0.7904,1596.8 ± 1.6 kg/m3
same,mass density,x1 = 0.8946,1603.2 ± 1.6 kg/m3
same,mass density,x1 = 1,1610.2 ± 1.6 kg/m3
ClC(Cl)=C(Cl)Cl [tetrachloroethene] + c1ccccc1,viscosity,x1 = 0.0883,0.6141 ± 0.0078 mPa·s
same,viscosity,x1 = 0.1788,0.6279 ± 0.0079 mPa·s
same,viscosity,x1 = 0.272,0.6438 ± 0.008 mPa·s
same,viscosity,x1 = 0.3674,0.6618 ± 0.0081 mPa·s
same,viscosity,x1 = 0.4655,0.6834 ± 0.0082 mPa·s
same,viscosity,x1 = 0.5671,0.7088 ± 0.0083 mPa·s
same,viscosity,x1 = 0.6706,0.7367 ± 0.0085 mPa·s
same,viscosity,x1 = 0.777,0.7693 ± 0.0087 mPa·s
same,viscosity,x1 = 0.8873,0.8051 ± 0.0089 mPa·s
same,viscosity,x1 = 1,0.8474 ± 0.0091 mPa·s
same,mass density,x1 = 0.0883,939.8 ± 0.6 kg/m3
same,mass density,x1 = 0.1788,1011.5 ± 0.5 kg/m3
same,mass density,x1 = 0.272,1084.6 ± 0.7 kg/m3
same,mass density,x1 = 0.3674,1156.7 ± 0.8 kg/m3
same,mass density,x1 = 0.4655,1228.8 ± 0.9 kg/m3
same,mass density,x1 = 0.5671,1302.3 ± 1.1 kg/m3
same,mass density,x1 = 0.6706,1377.4 ± 1.2 kg/m3
same,mass density,x1 = 0.777,1453.2 ± 1.3 kg/m3
same,mass density,x1 = 0.8873,1531.7 ± 1.5 kg/m3
same,mass density,x1 = 1,1610.2 ± 1.6 kg/m3
ClC(Cl)(Cl)Cl [tetrachloromethane] + ClC(Cl)=C(Cl)Cl,viscosity,x2 = 0,0.9096 ± 0.0095 mPa·s
same,mass density,x2 = 0,1586.1 ± 1.6 kg/m3
ClC(Cl)(Cl)Cl [tetrachloromethane] + ClC=C(Cl)Cl,viscosity,x2 = 0,0.9096 ± 0.0095 mPa·s
same,mass density,x2 = 0,1586.1 ± 1.6 kg/m3
Cc1ccccc1 [toluene] + ClC(Cl)=C(Cl)Cl,viscosity,x2 = 0,0.5641 ± 0.0076 mPa·s
same,mass density,x2 = 0,860.5 ± 0.6 kg/m3
Cc1ccccc1 [toluene] + ClC=C(Cl)Cl,viscosity,x2 = 0,0.5641 ± 0.0076 mPa·s
same,mass density,x2 = 0,860.5 ± 0.6 kg/m3
ClC=C(Cl)Cl [trichloroethene] + CC(C)=O,viscosity,x1 = 0.084,0.3412 ± 0.0067 mPa·s
same,viscosity,x1 = 0.1712,0.3688 ± 0.0068 mPa·s
same,viscosity,x1 = 0.2608,0.3958 ± 0.0069 mPa·s
same,viscosity,x1 = 0.3544,0.4244 ± 0.007 mPa·s
same,viscosity,x1 = 0.4519,0.4501 ± 0.0071 mPa·s
same,viscosity,x1 = 0.5528,0.4723 ± 0.0072 mPa·s
same,viscosity,x1 = 0.6582,0.4906 ± 0.0073 mPa·s
same,viscosity,x1 = 0.7671,0.5107 ± 0.0074 mPa·s
same,viscosity,x1 = 0.8815,0.5309 ± 0.0074 mPa·s
same,viscosity,x1 = 1,0.551 ± 0.0075 mPa·s
same,mass density,x1 = 0.084,845.9 ± 0.6 kg/m3
same,mass density,x1 = 0.1712,912.3 ± 0.6 kg/m3
same,mass density,x1 = 0.2608,978.8 ± 0.6 kg/m3
same,mass density,x1 = 0.3544,1045 ± 0.6 kg/m3
same,mass density,x1 = 0.4519,1111.6 ± 0.8 kg/m3
same,mass density,x1 = 0.5528,1179 ± 0.8 kg/m3
same,mass density,x1 = 0.6582,1246.4 ± 0.9 kg/m3
same,mass density,x1 = 0.7671,1315.6 ± 1.1 kg/m3
same,mass density,x1 = 0.8815,1385.7 ± 1.2 kg/m3
same,mass density,x1 = 1,1455.7 ± 1.3 kg/m3
ClC=C(Cl)Cl [trichloroethene] + CC(C)O,viscosity,x1 = 0.0866,1.764 ± 0.016 mPa·s
same,viscosity,x1 = 0.1754,1.514 ± 0.014 mPa·s
same,viscosity,x1 = 0.2667,1.306 ± 0.012 mPa·s
same,viscosity,x1 = 0.3613,1.119 ± 0.011 mPa·s
same,viscosity,x1 = 0.4594,0.9582 ± 0.0098 mPa·s
same,viscosity,x1 = 0.5602,0.8218 ± 0.009 mPa·s
same,viscosity,x1 = 0.665,0.7173 ± 0.0084 mPa·s
same,viscosity,x1 = 0.7724,0.6451 ± 0.008 mPa·s
same,viscosity,x1 = 0.8846,0.6004 ± 0.0078 mPa·s
same,viscosity,x1 = 1,0.551 ± 0.0075 mPa·s
same,mass density,x1 = 0.0866,850.4 ± 0.6 kg/m3
same,mass density,x1 = 0.1754,916.6 ± 0.6 kg/m3
same,mass density,x1 = 0.2667,982.1 ± 0.6 kg/m3
same,mass density,x1 = 0.3613,1047.6 ± 0.6 kg/m3
same,mass density,x1 = 0.4594,1113.9 ± 0.8 kg/m3
same,mass density,x1 = 0.5602,1180.9 ± 0.9 kg/m3
same,mass density,x1 = 0.665,1249.2 ± 0.9 kg/m3
same,mass density,x1 = 0.7724,1316.8 ± 1.1 kg/m3
same,mass density,x1 = 0.8846,1385.9 ± 1.2 kg/m3
same,mass density,x1 = 1,1455.7 ± 1.3 kg/m3
